# Measurements from BindingDB's records for doi:10.1021/jm000508c (Ontogen, 2001).
# pIC50: −log10 of the molar value.
# Tests used:
# [1] = Inhibitory activity against P-selectin using cell-cell assay
# [2] = Inhibitory activity against Selectin E using cell-cell assay
Structure (SMILES),pIC50 [1],pIC50 [2]
CCCCCCCCCCCCNC(=O)C=Cc1ccc(-c2[nH]c(-c3ccc(-c4cc(C(=O)O)on4)cc3)nc2-c2ccc(C=CC(=O)O)cc2)cc1 [3-(4-{4-[4-(2-Carboxy-vinyl)-phenyl]-5-[4-(2-dodecylcarbamoyl-vinyl)-phenyl]-1H-imidazol-2-yl}-phenyl)-isoxazole-5-carboxylic acid],3.30,
"CCCCCCCCCCCCCCCCNC(=O)C=Cc1ccc(-c2[nH]c(-c3ccc(C4=NOC(C(=O)O)C4)cc3)nc2-c2ccc(C=CC(=O)O)cc2)cc1 (stereo not drawn) [3-(4-{4-[4-(2-Carboxy-vinyl)-phenyl]-5-[4-(2-hexadecylcarbamoyl-vinyl)-phenyl]-1H-imidazol-2-yl}-phenyl)-4,5-dihydro-isoxazole-5-carboxylic acid]",4.85,4.52
CCCCCCCCCCCCCCCCNC(=O)C=Cc1ccc(-c2[nH]c(-c3ccc(-c4cc(C(=O)O)on4)cc3)nc2-c2ccc(C=CC(=O)O)cc2)cc1 [3-(4-{4-[4-(2-Carboxy-vinyl)-phenyl]-5-[4-(2-hexadecylcarbamoyl-vinyl)-phenyl]-1H-imidazol-2-yl}-phenyl)-isoxazole-5-carboxylic acid],5.10,4.70
CCCCCCCCCCCCCCCCNC(=O)C=Cc1ccc(-c2[nH]cnc2-c2ccc(C=CC(=O)O)cc2)cc1 [3-(4-{5-[4-(2-Hexadecylcarbamoyl-vinyl)-phenyl]-1H-imidazol-4-yl}-phenyl)-acrylic acid],4.01,< 4.00
"O=C(O)C=Cc1ccc(-c2nc(-c3ccc(C4=NOC(C(=O)O)C4)cc3)c(-c3ccc(C=CC(=O)NCCCc4ccccc4)cc3)[nH]2)cc1 (stereo not drawn) [3-[4-(2-[4-(2-Carboxy-vinyl)-phenyl]-5-{4-[2-(3-phenyl-propylcarbamoyl)-vinyl]-phenyl}-1H-imidazol-4-yl)-phenyl]-4,5-dihydro-isoxazole-5-carboxylic acid]",3.91,
